Test results: US20240158446A1, “CYCLIC COMPOUND HAVING SELECTIVE INHIBITORY ACTION ON KRAS OVER HRAS AND NRAS” (CHUGAI SEIYAKU KABUSHIKI KAISHA, priority 2021, published 2024)

Columns and labels:
[1] = target: GDP-bound KRAS wild-type protein (Homo sapiens, UniProt P01116); assay: Binding to KRAS by surface plasmon resonance (SPR), Single Cycle Kinetics; conditions: SPR, Single Cycle Kinetics, GDP-bound KRAS wild-type protein; read-out: KRAS KD
[2] = target: GDP-bound HRAS wild-type protein (Homo sapiens, UniProt P01112); assay: Binding to HRAS by surface plasmon resonance (SPR), Single Cycle Kinetics; conditions: SPR, GDP-bound HRAS wild-type protein vs GDP-bound KRAS wild-type protein
GDP-bound HRAS wild-type protein, sequence (P01112 whole entry): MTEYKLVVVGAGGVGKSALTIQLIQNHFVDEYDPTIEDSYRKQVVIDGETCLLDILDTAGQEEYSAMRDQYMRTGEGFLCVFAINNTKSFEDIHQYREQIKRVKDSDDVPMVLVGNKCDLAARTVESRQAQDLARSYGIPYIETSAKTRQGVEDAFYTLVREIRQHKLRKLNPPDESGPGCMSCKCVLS

[3] = target: GDP-bound NRAS wild-type protein (Homo sapiens, UniProt P01111); assay: Binding to NRAS by surface plasmon resonance (SPR), Single Cycle Kinetics; conditions: SPR, GDP-bound NRAS wild-type protein vs GDP-bound KRAS wild-type protein
GDP-bound NRAS wild-type protein, sequence (P01111 whole entry): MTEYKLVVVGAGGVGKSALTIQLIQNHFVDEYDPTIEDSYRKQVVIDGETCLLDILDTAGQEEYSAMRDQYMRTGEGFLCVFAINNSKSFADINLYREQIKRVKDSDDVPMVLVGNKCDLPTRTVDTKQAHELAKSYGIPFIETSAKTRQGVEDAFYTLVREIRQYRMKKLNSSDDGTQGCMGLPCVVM

GDP-bound KRAS wild-type protein, sequence (P01116 whole entry): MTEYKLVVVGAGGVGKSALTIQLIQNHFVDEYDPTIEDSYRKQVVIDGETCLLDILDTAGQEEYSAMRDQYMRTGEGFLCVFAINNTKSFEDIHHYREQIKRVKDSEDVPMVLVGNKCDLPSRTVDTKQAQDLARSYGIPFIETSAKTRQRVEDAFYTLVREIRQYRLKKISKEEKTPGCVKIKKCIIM

| Compound | Kd [1] [nM] | HRAS/KRAS (ratio of KD value for HRAS to KD value for KRAS) [2] | NRAS/KRAS (ratio of KD value for NRAS to KD value for KRAS) [3] |
| --- | --- | --- | --- |
| CCC[C@H]1C(=O)N[C@@H]([C@@H](C)CC)C(=O)N(C)CC(=O)N(C)[C@H]2C/C=C\CCN(C2=O)[C@@H](Cc2ccc(C(F)(F)F)cc2)C(=O)N(C)CC(=O)N[C@@H](CCc2ccc(C(F)(F)F)c(Cl)c2)C(=O)N2C[C@H](OCC)C[C@H]2C(=O)NC2(CC(C)(C)C2)C(=O)N(C)[C@@H](CC(F)(F)F)C(=O)N(C)[C@H](C(=O)N(C)C)CC(=O)N1C [PP2975] | 0.96 | A (a compound having 10 or more and less than 20 is denoted as A) | A (a compound having 10 or more and less than 20 is denoted as A) |
| CCC[C@H]1C(=O)N[C@@H]([C@@H](C)CC)C(=O)N(C)CC(=O)N(C)[C@H]2C/C=C\CCN(C2=O)[C@@H](Cc2ccc(C(F)(F)F)cc2)C(=O)N(C)CC(=O)N[C@@H](CCc2ccc(C(F)(F)F)c(Cl)c2)C(=O)N2C[C@H](OCC)C[C@H]2C(=O)NC2(CC(C)(C)C2)C(=O)N(C)[C@@H](CC(C)C)C(=O)N(C)[C@H](C(=O)N(C)C)CC(=O)N1C [PP2977] | 0.3 | A (a compound having 10 or more and less than 20 is denoted as A) | A (a compound having 10 or more and less than 20 is denoted as A) |
| CCC[C@H]1C(=O)N[C@@H]([C@@H](C)CC)C(=O)N(C)CC(=O)N(C)[C@H]2C/C=C\CCN(C2=O)[C@@H](Cc2ccc(C(F)(F)F)cc2)C(=O)N(C)CC(=O)N[C@@H](CCc2ccc(C(F)(F)F)c(Cl)c2)C(=O)N2CC3(CC3)C[C@H]2C(=O)NC2(CC(C)(C)C2)C(=O)N(C)[C@@H](CC(C)(C)C)C(=O)N(C)[C@H](C(=O)N(C)C)CC(=O)N1C [PP2979] | 0.28 | B (a compound having 3 or more and less than 10 is denoted as B) | A (a compound having 10 or more and less than 20 is denoted as A) |
| C#CC[C@H]1C(=O)N[C@@H]([C@@H](C)CC)C(=O)N(C)CC(=O)N(C)[C@H]2C/C=C\CCN(C2=O)[C@@H](Cc2ccc(C(F)(F)F)cc2)C(=O)N(C)CC(=O)N[C@@H](CCc2ccc(C(F)(F)F)c(Cl)c2)C(=O)N2CC3(CC3)C[C@H]2C(=O)NC2(CC(C)(C)C2)C(=O)N(C)[C@@H](C2CCCC2)C(=O)N(C)[C@H](C(=O)N(C)C)CC(=O)N1C [PP2980] | 0.23 | B (a compound having 3 or more and less than 10 is denoted as B) | A (a compound having 10 or more and less than 20 is denoted as A) |
| CCC[C@H]1C(=O)N[C@@H](C2CCCC2)C(=O)N(C)CC(=O)N(C)[C@H]2C/C=C\CCN(C2=O)[C@@H](Cc2ccc(C(F)(F)F)cc2)C(=O)N(C)CC(=O)N[C@@H](CCc2ccc(C(F)(F)F)c(Cl)c2)C(=O)N2CC3(CC3)C[C@H]2C(=O)NC2(CC(C)(C)C2)C(=O)N(C)[C@@H](CC(C)(C)C)C(=O)N(C)[C@H](C(=O)N(C)C)CC(=O)N1C [PP2981] | 0.31 | A (a compound having 10 or more and less than 20 is denoted as A) | AA (a compound having 20 or more is denoted as AA) |
| C#CC[C@H]1C(=O)N[C@@H]([C@@H](C)CC)C(=O)N(C)CC(=O)N(C)[C@H]2C/C=C\CCN(C2=O)[C@@H](Cc2ccc(C)cc2)C(=O)N(C)CC(=O)N[C@@H](CCc2ccc(C(F)(F)F)c(Cl)c2)C(=O)N2CC3(CC3)C[C@H]2C(=O)NC2(CC(C)(C)C2)C(=O)N(C)[C@@H](C2CCCC2)C(=O)N(C)[C@H](C(=O)N(C)C)CC(=O)N1C [PP2982] | 0.16 | A (a compound having 10 or more and less than 20 is denoted as A) | A (a compound having 10 or more and less than 20 is denoted as A) |
| CCC[C@H]1C(=O)N[C@@H]([C@@H](C)CC)C(=O)N(C)CC(=O)N(C)[C@H]2C/C=C\CCN(C2=O)[C@@H](Cc2ccc(C(F)(F)F)cc2)C(=O)N(C)CC(=O)N[C@@H](CCc2ccc(C(F)(F)F)c(Cl)c2)C(=O)N2CC3(CC3)C[C@H]2C(=O)NC2(CC(C)(C)C2)C(=O)N(C)[C@@H]([C@@H](C)CC)C(=O)N(C)[C@H](C(=O)N(C)C)CC(=O)N1C [PP2983] | 0.5 | A (a compound having 10 or more and less than 20 is denoted as A) | AA (a compound having 20 or more is denoted as AA) |
| CCC[C@H]1C(=O)N[C@@H](C2CCCC2)C(=O)N(C)CC(=O)N(C)[C@H]2C/C=C\CCN(C2=O)[C@@H](Cc2ccc(C(F)(F)F)cc2)C(=O)N(C)CC(=O)N[C@@H](CCc2ccc(C(F)(F)F)c(Cl)c2)C(=O)N2C[C@H](OCC)C[C@H]2C(=O)NC2(CC(C)(C)C2)C(=O)N(C)[C@@H](C2CCCC2)C(=O)N(C)[C@H](C(=O)N(C)C)CC(=O)N1C [PP2984] | 0.2 | B (a compound having 3 or more and less than 10 is denoted as B) | A (a compound having 10 or more and less than 20 is denoted as A) |
| CCC[C@H]1C(=O)N[C@@H](C2CCCC2)C(=O)N(C)CC(=O)N(C)[C@H]2C/C=C\CCN(C2=O)[C@@H](Cc2ccc(C(F)(F)F)cc2)C(=O)N(C)CC(=O)N[C@@H](CCc2ccc(C(F)(F)F)c(Cl)c2)C(=O)N2CC3(CC3)C[C@H]2C(=O)NC2(CC(C)(C)C2)C(=O)N(C)[C@@H](C2CCCC2)C(=O)N(C)[C@H](C(=O)N(C)C)CC(=O)N1C [PP2986] | 0.34 | A (a compound having 10 or more and less than 20 is denoted as A) | AA (a compound having 20 or more is denoted as AA) |
| CCC[C@H]1C(=O)N[C@@H]([C@@H](C)CC)C(=O)N(C)CC(=O)N(C)[C@H]2C/C=C\CCN(C2=O)[C@@H](Cc2ccc(C(F)(F)F)cc2)C(=O)N(C)CC(=O)N[C@@H](CCc2ccc(C(F)(F)F)c(Cl)c2)C(=O)N2CC3(CC3)C[C@H]2C(=O)NC2(CC(C)(C)C2)C(=O)N(C)[C@@H](CC(C)C)C(=O)N(C)[C@H](C(=O)N(C)C)CC(=O)N1C [PP2987] | 0.66 | A (a compound having 10 or more and less than 20 is denoted as A) | AA (a compound having 20 or more is denoted as AA) |
| CCC[C@H]1C(=O)N[C@@H](C2CCCC2)C(=O)N(C)CC(=O)N(C)[C@H]2C/C=C\CCN(C2=O)[C@@H](Cc2ccc(C)cc2)C(=O)N(C)CC(=O)N[C@@H](CCc2cc(F)c(C(F)(F)F)c(F)c2)C(=O)N2C[C@H](OCC)C[C@H]2C(=O)NC2(CC(C)(C)C2)C(=O)N(C)[C@@H](CC(C)(C)C)C(=O)N(C)[C@H](C(=O)N(C)C)CC(=O)N1C [PP2989] | 0.087 | A (a compound having 10 or more and less than 20 is denoted as A) | AA (a compound having 20 or more is denoted as AA) |
| CCC[C@H]1C(=O)N[C@@H](C2CCCC2)C(=O)N(C)CC(=O)N(C)[C@H]2C/C=C\CCN(C2=O)[C@@H](Cc2ccc(C)cc2)C(=O)N(C)CC(=O)N[C@@H](CCc2ccc(C(F)(F)F)c(OC)c2)C(=O)N2C[C@H](OCC)C[C@H]2C(=O)NC2(CC(C)(C)C2)C(=O)N(C)[C@@H](C2CCCC2)C(=O)N(C)[C@H](C(=O)N(C)C)CC(=O)N1C [PP2992] | 0.19 | A (a compound having 10 or more and less than 20 is denoted as A) | AA (a compound having 20 or more is denoted as AA) |
| CCC[C@H]1C(=O)N[C@@H]([C@@H](C)CC)C(=O)N(C)CC(=O)N(C)[C@H]2C/C=C\CCN(C2=O)[C@@H](Cc2ccc(C)cc2)C(=O)N(C)CC(=O)N[C@@H](CCc2cc(F)c(C(F)(F)F)c(F)c2)C(=O)N2C[C@H](OCC)C[C@H]2C(=O)NC2(CC(C)(C)C2)C(=O)N(C)[C@@H](CC(F)(F)F)C(=O)N(C)[C@H](C(=O)N(C)C)CC(=O)N1C [PP2993] | 0.43 | A (a compound having 10 or more and less than 20 is denoted as A) | A (a compound having 10 or more and less than 20 is denoted as A) |
| CCC[C@H]1C(=O)N[C@@H](C2CCCCC2)C(=O)N(C)CC(=O)N(C)[C@H]2C/C=C\CCN(C2=O)[C@@H](Cc2ccc(C(F)(F)F)cc2)C(=O)N(C)CC(=O)N[C@@H](CCc2ccc(C(F)(F)F)c(Cl)c2)C(=O)N2C[C@H](OCC)C[C@H]2C(=O)NC2(CC(C)(C)C2)C(=O)N(C)[C@@H](C2CCCC2)C(=O)N(C)[C@H](C(=O)N(C)C)CC(=O)N1C [PP2996] | 0.36 | A (a compound having 10 or more and less than 20 is denoted as A) | AA (a compound having 20 or more is denoted as AA) |
| CCC[C@H]1C(=O)N[C@@H]([C@@H](C)CC)C(=O)N(C)CC(=O)N(C)[C@H]2C/C=C\CCN(C2=O)[C@@H](Cc2ccc(C)cc2)C(=O)N(C)CC(=O)N[C@@H](CCc2cc(F)c(C(F)(F)F)c(F)c2)C(=O)N2CC3(CC3)C[C@H]2C(=O)NC2(CC(C)(C)C2)C(=O)N(C)[C@@H](CC(C)(C)C)C(=O)N(C)[C@H](C(=O)N(C)C)CC(=O)N1C [PP2997] | 0.12 | B (a compound having 3 or more and less than 10 is denoted as B) | A (a compound having 10 or more and less than 20 is denoted as A) |
